In this assay the target is GLP-1 Receptor (Homo sapiens, UniProt P43220). Nature of the assay: GLP-1R agonist cAMP stimulation assay (HEK293/GLP1R/CRE-LUC cells, cAMP dynamic 2 Kit). Type of assay: cell-based. To be noted: HEK293/CRE-Luc cell line stably expressing the GLP-1 Receptor, 30 min at 37° C. The method in brief: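 HEK293 cells stably expressing human GLP-1R with CRE-luciferase, 1000 cells/well in DPBS with 0.5 mM IBMX and 0.1% BSA, treated with compound in 1/2-log serial dilution for 30 min at 37 °C. cAMP then detected by HTRF (cAMP-d2 plus anti-cAMP cryptate), 1 h at room temperature in the dark.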
Sequence of GLP-1 Receptor (P43220 24-463, species assumed): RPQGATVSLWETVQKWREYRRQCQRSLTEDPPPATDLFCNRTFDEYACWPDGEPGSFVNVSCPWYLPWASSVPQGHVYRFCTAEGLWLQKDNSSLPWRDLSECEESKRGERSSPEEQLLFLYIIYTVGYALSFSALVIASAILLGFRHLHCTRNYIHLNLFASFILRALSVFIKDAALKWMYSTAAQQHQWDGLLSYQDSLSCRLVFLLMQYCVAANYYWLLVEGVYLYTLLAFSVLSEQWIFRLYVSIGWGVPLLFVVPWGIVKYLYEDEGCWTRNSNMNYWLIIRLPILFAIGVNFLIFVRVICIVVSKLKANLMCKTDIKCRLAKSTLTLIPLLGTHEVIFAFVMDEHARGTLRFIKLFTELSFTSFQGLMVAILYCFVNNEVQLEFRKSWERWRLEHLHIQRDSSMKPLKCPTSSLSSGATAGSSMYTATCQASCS

For `N#Cc1ccc(COc2cc(C3=CCN(Cc4nc5cc(-c6nnc(C(F)(F)F)[nH]6)cnc5n4C[C@@H]4CCO4)CC3)ccc2F)c(F)c1` [Compound 296a, 3-fluoro-4-[(2-fluoro-5-{1-[(3-{[(2S)-oxetan-2-yl]methyl}-6-[5-(trifluoromethyl)-4H-1,2,4-triazol-3-yl]-3H-imidazo[4,5-b]pyridin-2-yl)methyl]-1,2,3,6-tetrahydropyridin-4-yl}phenoxy)methyl]benzonitrile], it took 480 pM to reach a half-maximal effect (EC50).

`C[C@]1(c2ccc(Cl)cn2)Oc2cccc(C3CCN(Cc4nc5cc(-c6nnn[nH]6)ncc5n4C[C@@H]4CCO4)CC3)c2O1` [Compound 449a, 5-chloro-2-[(2S)-2-methyl-4-{1-[(3-{[(2S)-oxetan-2-yl]methyl}-6-(1H-1,2,3,4-tetrazol-5-yl)-3H-imidazo[4,5-c]pyridin-2-yl)methyl]piperidin-4-yl}-2H-1,3-benzodioxol-2-yl]pyridine]: a half-maximal effect (EC50) was put at 16 pM.

Consider `CC1(c2ccc(Cl)cc2)Oc2cccc(C3CCN(Cc4nc5cc(-c6noc(=O)[nH]6)cnc5n4C[C@@H]4CCO4)CC3)c2O1` (stereo partly drawn) [Compound 330a, 3-[2-({4-[2-(4-chlorophenyl)-2-methyl-2H-1,3-benzodioxol-4-yl]piperidin-1-yl}methyl)-3-{[(2S)-oxetan-2-yl]methyl}-3H-imidazo[4,5-b]pyridin-6-yl]-4,5-dihydro-1,2,4-oxadiazol-5-one], for which the response was half-maximal at 970 pM (EC50).

For the molecule `O=C(Nc1ccc2c(c1)nc(CN1CCC(c3cccc(OCc4ccc(Cl)cc4F)n3)CC1)n2C[C@@H]1CCO1)C1COCCC1(F)F` (stereo partly drawn) [Compound 189a, N-{2-[(4-{6-[(4-chloro-2-fluorophenyl)methoxy]pyridin-2-yl}piperidin-1-yl)methyl]-1-{[(2S)-oxetan-2-yl]methyl}-1H-1,3-benzodiazol-5-yl}-4,4-difluorooxane-3-carboxamide], the EC50 (as a rule, the concentration giving half of the maximal effect) was found to be 820 pM.

Take `O=c1[nH]c(-c2cnc3c(c2)nc(CN2CC=C(c4ccc(F)c(OCc5ccc(Cl)cc5F)c4)CC2)n3C[C@@H]2CCO2)no1` [Compound 293a, 3-{2-[(4-{3-[(4-chloro-2-fluorophenyl)methoxy]-4-fluorophenyl}-1,2,3,6-tetrahydropyridin-1-yl)methyl]-3-{[(2S)-oxetan-2-yl]methyl}-3H-imidazo[4,5-b]pyridin-6-yl}-4,5-dihydro-1,2,4-oxadiazol-5-one]: the EC50 is 2800 pM.

As to `CO[C@@H](C)Cn1c(CN2CCC(c3cccc4c3OC(C)(c3ccc(Cl)cn3)O4)CC2)nc2cc(-c3noc(=O)[nH]3)ncc21` (stereo partly drawn) [Compound 437a, 3-[2-({4-[2-(5-chloropyridin-2-yl)-2-methyl-2H-1,3-benzodioxol-4-yl]piperidin-1-yl}methyl)-3-[(2S)-2-methoxypropyl]-3H-imidazo[4,5-c]pyridin-6-yl]-4,5-dihydro-1,2,4-oxadiazol-5-one], the midpoint of the response, the EC50, lay at 2700 pM.

In turn, `CC1(c2ccc(Cl)cn2)Oc2cccc(C3CCN(Cc4nc5cc(-c6nnc(C7CC7)[nH]6)ccc5n4C[C@@H]4CCO4)CC3)c2O1` (stereo partly drawn) [Compound 270a, 2-({4-[2-(5-chloropyridin-2-yl)-2-methyl-2H-1,3-benzodioxol-4-yl]piperidin-1-yl}methyl)-5-(5-cyclopropyl-4H-1,2,4-triazol-3-yl)-1-{[(2S)-oxetan-2-yl]methyl}-1H-1,3-benzodiazole] showed a concentration for a half-maximal effect (EC50) of 860 pM.

Take `CO[C@H](C)Cn1c(CN2CCC(c3cccc4c3O[C@@](C)(c3ccc(Cl)cc3F)O4)CC2)nc2cc(-c3nnc(C(F)(F)F)[nH]3)ncc21` [Compound 418a, 4-[(2S)-2-(4-chloro-2-fluorophenyl)-2-methyl-2H-1,3-benzodioxol-4-yl]-1-({3-[(2R)-2-methoxypropyl]-6-[5-(trifluoromethyl)-4H-1,2,4-triazol-3-yl]-3H-imidazo[4,5-c]pyridin-2-yl}methyl)piperidine]: the 50% effective concentration (EC50) came out at 95 pM. This EC50 lies about 9.1-fold lower than the previous one.

In the case of `C[C@]1(c2ccc(Cl)cn2)Oc2cccc(C3CCN(Cc4nc5cc(-c6n[nH]c(C(F)(F)F)n6)cnc5n4C[C@@H]4CCO4)CC3)c2O1` (single isomer, unassigned) [Compound 333b], the EC50 worked out at 29 pM.

For `CC(C(=O)Nc1ccc2c(c1)nc(CN1CCC(c3cccc(OCc4ccc(Cl)cc4F)n3)CC1)n2C[C@@H]1CCO1)c1cnn(C)c1` (stereo partly drawn) [Compound 182a, N-{2-[(4-{6-[(4-chloro-2-fluorophenyl)methoxy]pyridin-2-yl}piperidin-1-yl)methyl]-1-{[(2S)-oxetan-2-yl]methyl}-1H-1,3-benzodiazol-5-yl}-2-(1-methyl-1H-pyrazol-4-yl)propanamide], the midpoint of the response, the EC50, lay at 2500 pM.

With `C[C@]1(c2ccc(Cl)cn2)Oc2cccc(C3CCN(Cc4nc5cc(-c6nnn[nH]6)cnc5n4C[C@@H]4CCO4)CC3)c2O1` [Compound 451a, 5-chloro-2-[(2S)-2-methyl-4-{1-[(3-{[(2S)-oxetan-2-yl]methyl}-6-(1H-1,2,3,4-tetrazol-5-yl)-3H-imidazo[4,5-b]pyridin-2-yl)methyl]piperidin-4-yl}-2H-1,3-benzodioxol-2-yl]pyridine], the EC50 worked out at 210 pM. Against the preceding molecule, the EC50 is about 12-fold lower.

Turning to `O=C(Nc1ccc2c(c1)nc(CN1CCC(c3cccc(OCc4ccc(Cl)cc4F)n3)CC1)n2C[C@@H]1CCO1)c1ccc(F)cn1` [Compound 190a, N-{2-[(4-{6-[(4-chloro-2-fluorophenyl)methoxy]pyridin-2-yl}piperidin-1-yl)methyl]-1-{[(2S)-oxetan-2-yl]methyl}-1H-1,3-benzodiazol-5-yl}-5-fluoropyridine-2-carboxamide], it took 1200 pM to reach a half-maximal effect (EC50). Against the preceding molecule, the EC50 is about 5.7-fold higher.

Molecule `O=c1[nH]ccn1-c1ccc2c(c1)nc(CN1CCC(c3cccc(OCc4ccc(Cl)cc4F)n3)CC1)n2C[C@@H]1CCO1` [Compound 122a, 1-{2-[(4-{6-[(4-chloro-2-fluorophenyl)methoxy]pyridin-2-yl}piperidin-1-yl)methyl]-1-{[(2S)-oxetan-2-yl]methyl}-1H-1,3-benzodiazol-5-yl}-2,3-dihydro-1H-imidazol-2-one] yielded a half-maximal effective concentration (EC50) of 2400 pM.

As for `C[C@]1(c2ccc(Cl)cc2F)Oc2cccc(C3CCN(Cc4nc5cc(-c6nnc(C7CC7)[nH]6)ncc5n4C[C@@H]4CCO4)CC3)c2O1` [Compound 281a, 4-[(2S)-2-(4-chloro-2-fluorophenyl)-2-methyl-2H-1,3-benzodioxol-4-yl]-1-{[6-(5-cyclopropyl-4H-1,2,4-triazol-3-yl)-3-{[(2S)-oxetan-2-yl]methyl}-3H-imidazo[4,5-c]pyridin-2-yl]methyl}piperidine], it took 23 pM to reach a half-maximal effect (EC50).

Consider `O=C(Nc1ccc2c(c1)nc(CN1CCC(c3cccc(OCc4ccc(Cl)cc4F)n3)CC1)n2C[C@@H]1CCO1)N1CCC(O)C1` (stereo partly drawn) [Compound 207a, N-{2-[(4-{6-[(4-chloro-2-fluorophenyl)methoxy]pyridin-2-yl}piperidin-1-yl)methyl]-1-{[(2S)-oxetan-2-yl]methyl}-1H-1,3-benzodiazol-5-yl}-3-hydroxypyrrolidine-1-carboxamide], for which the EC50 was determined as 390 pM.
